The target of test [1] is T1, hENPP2 (UniProtKB/SwissProt Q13822) (Homo sapiens (Human), UniProt Q13822). The test is described as follows: fluorescent hENPP2 biochemical assay, FS-3 as substrate. Conditions: read-out: FS3-IC50. In a few lines:
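hENPP2 in 50 mM Tris-HCl pH 8.0, 250 mM NaCl, 5 mM KCl, 1 mM MgCl2, 1 mM CaCl2, 0.1% fatty-acid-free BSA, preincubated with compound 30 min at room temperature. The 0.75 μM FS-3 solution was added and the mixture incubated 30 min at 30° C. Fluorescence (ex 485/em 520 nm) gives IC50.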

Another test has as its system LPA 18:2 in rat plasma. In words: Rat whole blood (plasma) LPA assay. The test is classed as biochemical. Conditions: 2 h at 37 C, LPA 18:2 by LC-MS/MS. The gist of the method:
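Heparinised rat plasma spiked with compound (1% DMSO final), incubated 2 h at 37 °C, 5% CO2 with shaking; controls kept at −20 °C. After methanol precipitation with LPA 17:0 internal standard, LPA 18:2 measured by LC-MS/MS (C18, isocratic), relative quantities from peak area without calibration.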

The target in test [2] is T1, hENPP2. The test is described as follows: hENPP2 biochemical assay, LPC as substrate. Conditions: LPC (palmitoyl 16:0) as substrate. In a few lines: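 Human ENPP2 in 50 mM Tris-HCl pH 8.5, 500 mM NaCl, 5 mM KCl, 10 mM CaCl2, 0.1% fatty-acid-free BSA, reacted 30 min at 37 °C with LPC 16:0 (150 µM solution added 1:1). Released choline measured via choline oxidase/peroxidase/TOOS/4-aminoantipyrine quinoneimine dye at 555 nm; IC50 reported.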

The structures appear in SMILES notation.

A word on the IC50: it is the concentration that inhibits the measured activity by half. On to `CCc1nc2ccc(N3CCN(CC(=O)N4CC(O)C4)CC3)cn2c1N(C)c1nc(-c2ccc(F)cc2)c(C#N)s1` [Compound 138, 2-((2-ethyl-6-(4-(2-(3-hydroxyazetidin-1-yl)-2-oxoethyl)piperazin-1-yl)imidazo[1,2-a]pyridin-3-yl)(methyl)amino)-4-(4-fluorophenyl)thiazole-5-carbonitrile], for which the IC50 on hENPP2 [1], in the test with LPA 18:2 in rat plasma and on hENPP2 [2] was 0.01 to 100 nM in each case.

For the compound `CCc1nc2ccc(C3CCN(S(=O)(=O)CCCN(C)C)CC3)cn2c1N(C)c1nc(-c2ccc(F)cc2)cs1` [Compound 87, N-(6-(1-(3-(dimethylamino)propyl-sulfonyl)piperidin-4-yl)-2-ethylimidazo[1,2-a]pyridin-3-yl)-4-(4-fluorophenyl)-N-methylthiazol-2-amine], the IC50 on hENPP2 [1] was 0.01 to 100 nM; with LPA 18:2 in rat plasma, 100 to 500 nM; on hENPP2 [2] it was 100 to 500 nM.

Take `CCc1nc2ccc(N3CCN(C(=O)[C@H](C)O)CC3)cn2c1N(C)c1nc(-c2ccc(F)cc2)cs1` [Compound 203, (S)-1-(4-(2-ethyl-3-((4-(4-fluorophenyl)thiazol-2-yl)(methyl)amino)imidazo[1,2-a]pyridin-6-yl)piperazin-1-yl)-2-hydroxypropan-1-one]: the results for the IC50 on hENPP2 [1], with LPA 18:2 in rat plasma and against hENPP2 [2] were 0.01 to 100 nM, above 1000 nM and above 1000 nM, respectively.

On to `CCc1nc2ccc(C3CCN(S(=O)(=O)CCCN4CCOCC4)CC3)cn2c1N(C)c1nc(-c2ccc(F)cc2)cs1` [Compound 88, N-(2-ethyl-6-(1-(3-morpholinopropyl-sulfonyl)piperidin-4-yl)imidazo[1,2-a]pyridin-3-yl)-4-(4-fluorophenyl)-N-methylthiazol-2-amine], for which the IC50 at hENPP2 [1] lay within 0.01 to 100 nM; in the test with LPA 18:2 in rat plasma, 100 to 500 nM; against hENPP2 [2] it was 100 to 500 nM.

For `CCc1nc2ccc(C3CCN(CC(=O)N4CC(O)C4)CC3)cn2c1N(C)c1nc(-c2ccc(F)cc2)c(CO)s1` [Compound 156, 2-(4-(2-ethyl-3-((4-(4-fluorophenyl)-5-(hydroxymethyl)thiazol-2-yl)(methyl)amino)imidazo[1,2-a]pyridin-6-yl)piperidin-1-yl)-1-(3-hydroxyazetidin-1-yl)ethanone], the IC50 was 0.01 to 100 nM at hENPP2 [1], above 1000 nM in the test on LPA 18:2 in rat plasma and 500 to 1000 nM against hENPP2 [2].

Take `CCc1nc2ccc(C3CCN(S(=O)(=O)CCN4CCOCC4)CC3)cn2c1N(C)c1nc(-c2ccc(F)cc2)cs1` [Compound 91, N-(2-ethyl-6-(1-(2-morpholinoethylsulfonyl)piperidin-4 yl)imidazo[1,2-a]pyridin-3-yl)-4-(4-fluorophenyl)-N-methylthiazol-2-amine]: the results for the IC50 at hENPP2 [1], with LPA 18:2 in rat plasma and against hENPP2 [2] were 0.01 to 100 nM, above 1000 nM and 500 to 1000 nM, respectively.

As for `CCc1nc2ccc(N3CCS(=O)(=O)CC3)cn2c1N(C)c1nc(-c2ccc(Cl)cc2)cs1` [Compound 213, 4-(2-ethyl-3-((4-(4-chlorophenyl)thiazol-2-yl)(methyl)amino)imidazo[1,2-a]pyridin-6-yl)-thiomorpholin-1,1-dioxide], the half-maximal inhibitory concentration (IC50) at hENPP2 [1] is 0.01 to 100 nM; with LPA 18:2 in rat plasma, above 1000 nM; on hENPP2 [2], above 1000 nM.

Take `CCc1nc2ccc(C3CCN(CC(=O)N(C)C)CC3)cn2c1N(C)c1nc(-c2ccc(F)cc2)cs1` [Compound 114, 2-(4-(2-ethyl-3-((4-(4-fluorophenyl)thiazol-2-yl)(methyl)amino)imidazo[1,2-a]pyridin-6-yl)piperidin-1-yl)-N,N-dimethylacetamide]: the IC50 was 0.01 to 100 nM on hENPP2 [1], 500 to 1000 nM in the test with LPA 18:2 in rat plasma and 100 to 500 nM against hENPP2 [2].

On to `CCc1nc2ccc(C3CCN(S(C)(=O)=O)CC3)cn2c1N(C)c1nc(-c2ccc(F)cc2)c(C#N)s1` [Compound 136, 2-((2-ethyl-6-(1-(methylsulfonyl)piperidin-4-yl)imidazo [1,2-a]pyridin-3-yl)(methyl)amino)-4-(4-fluorophenyl) thiazole-5-carbonitrile], for which the IC50 at hENPP2 [1] was 0.01 to 100 nM; in the test on LPA 18:2 in rat plasma, 0.01 to 100 nM; against hENPP2 [2] it was 100 to 500 nM.

For the compound `CCc1nc2ccc(C3CCN(S(=O)(=O)CCCO)CC3)cn2c1N(C)c1nc(-c2ccc(F)cc2)c(F)s1` [Compound 95, 3-[4-(2-Ethyl-3-{[5-fluoro-4-(4-fluoro-phenyl)-thiazol-2-yl]-methyl-amino}-imidazo[1,2-a]pyridin-6-yl)-piperidine-1-sulfonyl]-propan-1-ol], the IC50 on hENPP2 [1] is 0.01 to 100 nM; in the test on LPA 18:2 in rat plasma, 100 to 500 nM; against hENPP2 [2], above 1000 nM.

Consider `CCc1nc2ccc(N3CCN(S(=O)(=O)CCCO)CC3)cn2c1N(C)c1nc(-c2ccc(F)cc2)cs1` [Compound 58, 3-(4-(2-ethyl-3-((4-(4-fluorophenyl)thiazol-2-yl)(methyl)amino)imidazo[1,2-a]pyridin-6-yl)piperazin-1-ylsulfonyl)propan-1-ol], for which the IC50 on hENPP2 [1] is 0.01 to 100 nM; with LPA 18:2 in rat plasma, above 1000 nM; on hENPP2 [2] it was above 1000 nM.

Regarding `CCc1nc2ccc(C3CCN(CC(=O)N4CC(O)C4)CC3)cn2c1N(C)c1nc(-c2ccc(F)cc2)c(C(=O)C(F)(F)F)s1` [Compound 159, 1-(2-((2-ethyl-6-(1-(2-(3-hydroxyazetidin-1-yl)-2-oxoethyl)piperidin-4-yl)imidazo[1,2-a]pyridin-3-yl)(methyl)amino)-4-(4-fluorophenyl)thiazol-5-yl)-2,2,2-trifluoroethanone], the results for the IC50 at hENPP2 [1], in the test on LPA 18:2 in rat plasma and against hENPP2 [2] were 0.01 to 100 nM, 100 to 500 nM and 0.01 to 100 nM, respectively.

For `CCc1nc2ccc(C3CCN(S(C)(=O)=O)CC3)cn2c1N(C)c1nc(-c2ccc(F)cc2C)cs1` [Compound 98, N-(2-ethyl-6-(1-(methylsulfonyl)piperidin-4-yl)imidazo[1,2-a]pyridin-3-yl)-4-(4-fluoro-2-methylphenyl)-N-methylthiazol-2-amine], the IC50 was in the range of 0.01 to 100 nM at hENPP2 [1], 100 to 500 nM in the test on LPA 18:2 in rat plasma and 500 to 1000 nM at hENPP2 [2].

On to `CCc1nc2ccc(C3CCN(S(C)(=O)=O)CC3)cn2c1N(C)c1nc(-c2ccc(F)cc2)c(C(=O)C(F)(F)F)s1` [Compound 160, 1-(2-((2-ethyl-6-(1-(methylsulfonyl)piperidin-4-yl)imidazo[1,2-a]pyridin-3-yl)(methyl)amino)-4-(4-fluorophenyl)thiazol-5-yl)-2,2,2-trifluoroethanone], for which the 50% inhibitory concentration (IC50) on hENPP2 [1] fell in the range of 0.01 to 100 nM; with LPA 18:2 in rat plasma it was 0.01 to 100 nM; on hENPP2 [2], 100 to 500 nM.

Take `CCc1nc2ccc(C3CCN(CC(=O)N4CC[C@@H](O)C4)CC3)cn2c1N(C)c1nc(-c2ccc(F)cc2)cs1` [Compound 111, (R)-2-(4-(2-ethyl-3-((4-(4-fluorophenyl)thiazol-2-yl)(methyl)amino)imidazo[1,2-a]pyridin-6-yl)piperidin-1-yl)-1-(3-hydroxypyrrolidin-1-yl)ethanone]: the results for the IC50 at hENPP2 [1], in the test with LPA 18:2 in rat plasma and against hENPP2 [2] were 0.01 to 100 nM, 500 to 1000 nM and 100 to 500 nM, respectively.

Turning to `CCc1nc2ccc(N3CCN(CC(=O)N(C)C)CC3)cn2c1N(C)c1nc(-c2ccc(F)cc2)c(CO)s1` [Compound 155, 2-(4-(2-ethyl-3-((4-(4-fluorophenyl)-5-(hydroxymethyl)thiazol-2-yl)(methyl)amino)imidazo[1,2-a]pyridin-6-yl)piperazin-1-yl)-N,N-dimethylacetamide], the IC50 at hENPP2 [1] was 0.01 to 100 nM; in the test with LPA 18:2 in rat plasma, 100 to 500 nM; against hENPP2 [2] it was 500 to 1000 nM.

Turning to `CCc1nc2ccc(N3CCN(CCO)CC3)cn2c1N(C)c1nc(-c2ccc(Cl)cc2)cs1` [Compound 212, 2-(4-(3-((4-(4-chlorophenyl)thiazol-2-yl)(methyl)amino)-2-ethylimidazo[1,2-a]pyridin-6-yl)piperazin-1-yl)ethanol], the IC50 at hENPP2 [1] is 0.01 to 100 nM; in the test with LPA 18:2 in rat plasma, above 1000 nM; on hENPP2 [2], above 1000 nM.

Turning to `CCc1nc2ccc(C3CCN(CC(=O)N4CC(CO)C4)CC3)cn2c1N(C)c1nc(-c2ccc(F)cc2)cs1` [Compound 113, 2-(4-(2-ethyl-3-((4-(4-fluorophenyl)thiazol-2-yl)(methyl)amino)imidazo[1,2-a]pyridin-6-yl)piperidin-1-yl)-1-(3-(hydroxymethyl)azetidin-1-yl) ethanone], the values for the IC50 at hENPP2 [1], in the test on LPA 18:2 in rat plasma and against hENPP2 [2] were 0.01 to 100 nM, 100 to 500 nM and 100 to 500 nM, respectively.

Consider `CCc1nc2ccc(N3CCOC3=O)cn2c1N(C)c1nc(-c2ccc(Cl)cc2)cs1` [Compound 206, 3-(3-((4-(4-chlorophenyl)thiazol-2-yl)(methyl)amino)-2-ethylimidazo[1,2-a]pyridin-6-yl)oxazolidin-2-one], for which the values for the half-inhibitory concentration (IC50) at hENPP2 [1], in the test with LPA 18:2 in rat plasma and on hENPP2 [2] were 0.01 to 100 nM, above 1000 nM and above 1000 nM, respectively.

The values above are taken from US9670204B2, “Compounds and pharmaceutical compositions thereof for the treatment of inflammatory disorders” (Galapagos NV, priority 2013, dated 2017).
